Measured values taken from PMC7914897, “Cytotoxic Potential of a-Azepano- and 3-Amino-3,4-SeCo-Triterpenoids” (International Journal of Molecular Sciences, 2021).
Like-named read-outs stand apart in the source and are kept apart here.

Assays:
[1] = test system: A2780 (ovarian carcinoma); experiment: SRB cytotoxicity assay, 72 h; assay type: cell-based, human; details: A2780, 72 h, cut-off 30 µM
Procedure, shortened: (§1)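 Cells seeded, treated 24 h later with serial dilutions (0–30 µM; DMSO ≤0.5%) for 72 h. TCA-fixed, SRB-stained, absorbance read at 570 nm; survival relative to untreated controls gives EC50.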

[2] = test system: A375 (malignant melanoma); experiment: SRB cytotoxicity assay, 72 h; assay type: cell-based, human; details: A375, 72 h, cut-off 30 µM
Procedure, shortened: as §1

[3] = test system: FaDu (hypopharyngeal carcinoma); experiment: SRB cytotoxicity assay, 72 h; assay type: cell-based, human; details: cut-off 30 µM
Procedure, shortened: as §1

[4] = test system: HT29 (colorectal carcinoma); experiment: SRB cytotoxicity assay, 72 h; assay type: cell-based, human; details: HT29, 72 h, cut-off 30 µM
Procedure, shortened: as §1

[5] = test system: MCF-7 (breast carcinoma); experiment: SRB cytotoxicity assay, 72 h; assay type: cell-based, human; details: MCF-7, 72 h, cut-off 30 µM
Procedure, shortened: as §1

[6] = test system: NIH 3T3 (non-malignant mouse fibroblasts); experiment: SRB cytotoxicity assay, 72 h; assay type: cell-based; details: NIH 3T3, 72 h, cut-off 30 µM
Procedure, shortened: as §1

[7] = test system: MDA-MB-435 (Melanoma); experiment: NCI-60 screen (SRB, 48 h); assay type: cell-based; details: Homo sapiens; for GI50 / CC50: MDA-MB-435; for IC (TGI): MDA-MB-435, 48 h, read-out: TGI; for CC50: read-out: LC50 (the source's name)
[8] = test system: BT-549 (Breast cancer); experiment: NCI-60 screen (SRB, 48 h); assay type: cell-based; details: Homo sapiens; for GI50: BT-549; for IC (TGI): BT-549, 48 h
[9] = test system: NSC lung cancer subpanel; experiment: NCI-60 screen, subpanel; details: Homo sapiens; for IC (TGI): 48 h, read-out: TGI MG_MID; for GI50: read-out: GI50 MG_MID; for CC50: read-out: LC50 MG_MID
[10] = test system: CNS cancer subpanel; experiment: NCI-60 screen, subpanel; details: Homo sapiens; for IC (TGI): 48 h, read-out: TGI MG_MID; for GI50: read-out: GI50 MG_MID; for CC50: read-out: LC50 MG_MID
[11] = test system: Melanoma subpanel; experiment: NCI-60 screen, subpanel; details: Homo sapiens; for IC (TGI): 48 h, read-out: TGI MG_MID; for GI50: read-out: GI50 MG_MID; for CC50: read-out: LC50 MG_MID
[12] = test system: Prostate cancer subpanel; experiment: NCI-60 screen, subpanel; details: Homo sapiens; for IC (TGI): 48 h, read-out: TGI MG_MID; for GI50: read-out: GI50 MG_MID; for CC50: read-out: LC50 MG_MID
[13] = test system: CCRF-CEM (Leukemia); experiment: NCI-60 screen (SRB, 48 h); details: Homo sapiens; for IC (TGI): 48 h, read-out: TGI; for CC50: read-out: LC50
[14] = test system: K-562 (Leukemia); experiment: NCI-60 screen (SRB, 48 h); details: Homo sapiens; for GI50: K562; for IC (TGI): K562, 48 h, read-out: TGI; for CC50: K562, read-out: LC50
[15] = test system: HCT-116 (Colon cancer); experiment: NCI-60 screen (SRB, 48 h); details: Homo sapiens; for GI50: HCT-116; for activity at 10 µM / IC (TGI): HCT-116, 48 h; for activity at 10 µM: read-out: Growth % of the Most Sensitive Cell Lines; for IC (TGI): read-out: TGI; for CC50: HCT-116, read-out: LC50
[16] = test system: HT29 (Colon cancer); experiment: NCI-60 screen (SRB, 48 h); details: Homo sapiens; for GI50: HT-29; for IC (TGI): HT-29, 48 h, read-out: TGI; for CC50: HT-29, read-out: LC50
[17] = test system: KM12 (Colon cancer); experiment: NCI-60 screen (SRB, 48 h); details: Homo sapiens; for GI50: KM12; for IC (TGI): KM12, 48 h, read-out: TGI
[18] = test system: SF-295 (CNS cancer); experiment: NCI-60 screen (SRB, 48 h); details: Homo sapiens; for GI50: SF-295; for IC (TGI): SF-295, 48 h, read-out: TGI; for CC50: SF-295, read-out: LC50
[19] = test system: SF-539 (CNS cancer); experiment: NCI-60 screen (SRB, 48 h); details: Homo sapiens; for GI50: SF-539; for IC (TGI): SF-539, 48 h, read-out: TGI; for CC50: SF-539, read-out: LC50
[20] = test system: MALME-3M (Melanoma); experiment: NCI-60 screen (SRB, 48 h); details: Homo sapiens; for IC (TGI): 48 h, read-out: TGI; for CC50: read-out: LC50
[21] = test system: SK-MEL-2 (Melanoma); experiment: NCI-60 screen (SRB, 48 h); details: Homo sapiens; for GI50: SK-MEL-2; for IC (TGI): SK-MEL-2, 48 h, read-out: TGI; for CC50: SK-MEL-2, read-out: LC50
[22] = test system: A498 (Renal cancer); experiment: NCI-60 screen (SRB, 48 h); details: Homo sapiens; for GI50: A498; for IC (TGI): A498, 48 h, read-out: TGI; for CC50: A498, read-out: LC50
[23] = test system: SN12C (Renal cancer); experiment: NCI-60 screen (SRB, 48 h); details: Homo sapiens; for IC (TGI): 48 h, read-out: TGI; for CC50: read-out: LC50
[24] = test system: UO-31 (Renal cancer); experiment: NCI-60 screen (SRB, 48 h); details: Homo sapiens; for GI50: UO-31; for IC (TGI): UO-31, 48 h, read-out: TGI; for CC50: UO-31, read-out: LC50
[25] = test system: MCF7 (Breast cancer); experiment: NCI-60 screen (SRB, 48 h); details: Homo sapiens; for GI50: MCF7; for IC (TGI): MCF7, 48 h, read-out: TGI; for CC50: MCF7, read-out: LC50

## C[C@H]1[C@H](C)CC[C@]2(CO)CC[C@]3(C)C(=CC[C@@H]4[C@@]5(C)CCCNC(C)(C)[C@@H]5CC[C@]43C)[C@H]12 [Compound 4, azepanouvaol]
[1]; Homo sapiens, read-out: EC50
  EC50: 2630 ± 100 nM
[2]; Homo sapiens, A-375, 72 h, read-out: EC50
  EC50: 2400 ± 200 nM
[3]; Homo sapiens, read-out: EC50
  EC50: 1690 ± 400 nM
[4]; Homo sapiens, HT-29, read-out: EC50
  EC50: 1710 ± 300 nM
[5]; Homo sapiens, MCF7, read-out: EC50
  EC50: 2300 ± 200 nM
[6]; Mus musculus, NIH3T3, read-out: EC50
  EC50: 2770 ± 400 nM
[7]
  GI50: 1590 nM
  IC (TGI): 3.21 µM
  CC50: 6.49 µM
[8]
  GI50: 1550 nM
  IC (TGI): 2.96 µM
[9]
  IC (TGI): 3.4 µM
  GI50: 1740 nM
  CC50: 6.37 µM
[10]
  IC (TGI): 3.2 µM
  GI50: 1690 nM
  CC50: 6.06 µM
[11]
  IC (TGI): 3.32 µM
  GI50: 1740 nM
  CC50: 6.36 µM
[12]
  IC (TGI): 3.06 µM
  GI50: 1640 nM
  CC50: 5.7 µM
[13]
  GI50: 1740 nM
  IC (TGI): 3.93 µM
  CC50: 8.88 µM
[14]
  GI50: 470 nM
  IC (TGI): 2.02 µM
  CC50: 6.68 µM
[15]
  GI50: 1490 nM
  activity at 10 µM: -94.7%
  IC (TGI): 2.81 µM
  CC50: 5.31 µM
[16]
  GI50: 630 nM
  IC (TGI): 1.97 µM
  CC50: 4.85 µM
[17]
  GI50: 1840 nM
  IC (TGI): 3.51 µM
[17]; KM12, read-out: LC50
  CC50: 6.68 µM
[18]
  GI50: 1640 nM
  IC (TGI): 3.06 µM
  CC50: 5.72 µM
[19]
  GI50: 1690 nM
  IC (TGI): 3.16 µM
  CC50: 5.9 µM
[20]
  GI50: 1680 nM
  IC (TGI): 3.44 µM
  CC50: 7.08 µM
[21]
  GI50: 1900 nM
  IC (TGI): 3.63 µM
  CC50: 6.91 µM
[22]
  GI50: 1630 nM
  IC (TGI): 3.29 µM
  CC50: 6.63 µM
[23]
  GI50: 1640 nM
  IC (TGI): 3.11 µM
  CC50: 5.87 µM
[24]
  GI50: 1540 nM
  IC (TGI): 2.99 µM
  CC50: 5.79 µM
[25]
  GI50: 1580 nM
  IC (TGI): 3.39 µM
  CC50: 7.28 µM

## CC1(C)CC[C@]23CC[C@]4(C)[C@H](CC[C@@H]5[C@@]6(C)CCCNC(C)(C)[C@@H]6CC[C@]54C)[C@H]2[C@H]1OC3 [Compound 7, Azepanoallobetulin]
[1]
  EC50: n.s.
[2]
  EC50: n.s.
[3]
  EC50: n.s.
[4]
  EC50: n.s.
[5]
  EC50: n.s.
[6]
  EC50: n.s.
[7]
  GI50: 1650 nM
  IC (TGI): 3.02 µM
  CC50: 5.55 µM
[8]
  GI50: 1680 nM
  IC (TGI): 3.24 µM
[9]
  IC (TGI): 3.28 µM
  GI50: 1490 nM
  CC50: 6.73 µM
[10]
  IC (TGI): 3.51 µM
  GI50: 1580 nM
  CC50: 10.2 µM
[11]
  IC (TGI): 3.37 µM
  GI50: 1760 nM
  CC50: 6.52 µM
[12]
  IC (TGI): 3.2 µM
  GI50: 1670 nM
  CC50: 6.12 µM
[13]
  GI50: 2320 nM
  IC (TGI): 6.73 µM
  CC50: > 100 µM
[14]
  GI50: 1960 nM
  IC (TGI): 7 µM
  CC50: > 100 µM
[15]
  GI50: 1520 nM
  activity at 10 µM: -99.4%
  IC (TGI): 2.88 µM
  CC50: 5.47 µM
[16]
  GI50: 1780 nM
  IC (TGI): 3.63 µM
  CC50: 7.42 µM
[17]
  GI50: 1860 nM
  IC (TGI): 3.44 µM
[18]
  GI50: 1700 nM
  IC (TGI): 3.19 µM
  CC50: 5.99 µM
[19]
  GI50: 1640 nM
  IC (TGI): 3.07 µM
  CC50: 5.78 µM
[20]
  GI50: 1790 nM
  IC (TGI): 3.47 µM
  CC50: 6.72 µM
[21]
  GI50: 1950 nM
  IC (TGI): 4.09 µM
  CC50: 8.57 µM
[22]
  GI50: 1680 nM
  IC (TGI): 3.67 µM
  CC50: 8 µM
[23]
  GI50: 1680 nM
  IC (TGI): 3.2 µM
  CC50: 6.1 µM
[24]
  GI50: 1560 nM
  IC (TGI): 3 µM
  CC50: 5.77 µM
[25]
  GI50: 1440 nM
  IC (TGI): 3.01 µM
  CC50: 6.3 µM
